Measured values reported in patent US12509460B2 (Skyhawk Therapeutics, Inc., priority 2019, dated 2025).

Tests used:
[1] = tested on: SMN protein in spinal muscular atrophy (SMA) patient fibroblasts (GM03813, Coriell); experiment: SMN protein assay, Mesoscale Discovery (MSD); assay type: cell-based, human; settings: SMA patient fibroblasts GM03813, 48 hours, MSD; read-out: SMN2 protein EC50
Procedure, shortened: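 SMA patient fibroblasts (GM03813) seeded at 7000 cells/well and exposed to compound at 2.5 μM to 0.6 nM for 48 hours. Lysates assayed for SMN by MSD immunoassay, with absolute SMN amount calculated from a per-plate SMN standard curve (1 μg/ml to 19.5 pg/ml).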

[2] = tested on: SMN FL and SMN Δ7 in spinal muscular atrophy (SMA) patient fibroblasts (GM03813, Coriell); experiment: Quantitative splicing assay (SMN), qPCR; assay type: cell-based, human; settings: Homo sapiens, Fibroblast, 24 h, SMA patient fibroblasts GM03813, 24 h, qPCR; read-out: SMN2 Splicing FL EC50
Method: Spinal muscular atrophy (SMA) patient fibroblasts (GM03813, Coriell) are plated in 96-well plates at 50,000 cells/well. […] Treated cells are lysed and cDNA synthesized using the Fast Advanced Cells-to-Ct kit (Thermofisher A35378) according to the manufacturer's instructions. 2 μL of each cDNA are used in qPCR reactions. […] Reactions are run in a Quant Studio 6 qPCR instrument with default settings.

[3] = Quantitative splicing assay (HTT), qPCR; assay type: cell-based, human; settings: Homo sapiens, GM04724, 24 h, GM04724 lymphoblasts, qPCR, read-out: HTT Splicing: E49-50 EC50
Procedure, shortened: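 Patient lymphoblasts (50,000 cells/well) dosed immediately after plating for 24 h at 2.5 uM to 0.15 nM in 0.1% DMSO. Lysed, cDNA made directly from cells, and inclusion of the intron 49 cryptic exon quantified by TaqMan qPCR.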

[4] = tested on: mHTT protein in GM04724 (CAG 70/20) Huntington's disease patient lymphoblast cells; experiment: mHTT protein assay, 2B7-MW1 assay via Mesoscale Discovery (MSD); assay type: cell-based, human; settings: GM04724 Huntington's disease patient lymphoblasts
Procedure, shortened: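 Patient lymphoblasts treated 48 h with compound from 10 μM to 0.6 nM. mHTT quantified by MSD 2B7-MW1 immunoassay, whose signal depends on polyQ expansion and HTT size. Viability measured on a replicate plate by CellTiter Glo.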

[5] = tested on: MDR1-MDCK cell monolayers; experiment: Blood-brain-barrier (BBB) penetration potential via MDCK-MDR1 permeability assay; settings: for MDCK-MDR1: % Recov A-B: A-B direction; for MDCK-MDR1: % Recov B-A: B-A direction
[6] = tested on: MDR1; experiment: as above; settings: dog, MDCK-MDR1, pH 7.4, MDCK-MDR1: Efflux, efflux ratio
[7] = tested on: MDR1 (P-gp); experiment: as above; settings: dog; for Papp A→B at 120 min, 5 μM: MDCK-MDR1, pH 7.4, MDCK-MDR1: Papp A-B, A-B direction; for Papp B→A at 120 min, 5 μM: MDCK-MDR1, pH 7.4, MDCK-MDR1: Papp B-A, B-A direction

COc1cnc(-c2ccc(-c3ccc(N(C)[C@@H]4C[C@H]5CCC[C@H](N5)[C@@H]4F)nn3)c(O)c2)cn1 [Compound 29A, 2-(6-(((1S,2S,3R,5R)-2-fluoro-9-azabicyclo[3.3.1]nonan-3-yl)(methyl)amino)pyridazin-3-yl)-5-(5-methoxypyrazin-2-yl)phenol]
EC50 [1]: 0.01 to 15 nM
EC50 [2]: 501 to 10000 nM
EC50 [3]: 16 to 50 nM
EC50 [4]: 16 to 50 nM
MDCK-MDR1: % Recov A-B [5]: 26%
MDCK-MDR1: % Recov B-A [5]: 60%
efflux ratio at 120 min, 5 μM [6]: 7
Papp A→B at 120 min, 5 μM [7]: 1.85 ×10⁻⁶ cm/s
Papp B→A at 120 min, 5 μM [7]: 12.6 ×10⁻⁶ cm/s

COc1cnc(-c2ccc(-c3ccc(N(C)[C@H]4C[C@@H]5CCC[C@@H](N5)[C@H]4F)nn3)c(O)c2)cn1 [Compound 29B, 2-(6-(((1R,2R,3S,5S)-2-fluoro-9-azabicyclo[3.3.1]nonan-3-yl)(methyl)amino)pyridazin-3-yl)-5-(5-methoxypyrazin-2-yl)phenol]
EC50 [1]: 0.01 to 15 nM
EC50 [2]: 501 to 10000 nM
EC50 [3]: 16 to 50 nM
EC50 [4]: 0.01 to 15 nM
MDCK-MDR1: % Recov A-B [5]: 21%
MDCK-MDR1: % Recov B-A [5]: 48%
efflux ratio at 120 min, 5 μM [6]: 4
Papp A→B at 120 min, 5 μM [7]: 1.54 ×10⁻⁶ cm/s
Papp B→A at 120 min, 5 μM [7]: 5.63 ×10⁻⁶ cm/s

C#Cc1ccc(-c2ccc(N(C)[C@H]3C[C@@H]4CC[C@@H](N4)[C@H]3F)nn2)c(O)c1 [Compound 10B, 5-ethynyl-2-(6-(((1R,2R,3S,5S)-2-fluoro-8-azabicyclo[3.2.1]octan-3-yl)(methyl)amino)pyridazin-3-yl)phenol]
EC50 [1]: 0.01 to 15 nM
EC50 [2]: 51 to 100 nM
EC50 [3]: 51 to 100 nM
EC50 [4]: 51 to 100 nM
MDCK-MDR1: % Recov A-B [5]: 52%
MDCK-MDR1: % Recov B-A [5]: 82%
efflux ratio at 120 min, 5 μM [6]: 2
Papp A→B at 120 min, 5 μM [7]: 11.2 ×10⁻⁶ cm/s
Papp B→A at 120 min, 5 μM [7]: 21.2 ×10⁻⁶ cm/s

CN(c1ccc(-c2cc3cnn(C)c3cc2O)nn1)[C@H]1C[C@@H]2CC[C@@H](N2)[C@H]1F [Compound 76B, 5-(6-(((1R,2R,3S,5S)-2-fluoro-8-azabicyclo[3.2.1]octan-3-yl)(methyl)amino)pyridazin-3-yl)-1-methyl-1H-indazol-6-ol]
EC50 [1]: 0.01 to 15 nM
EC50 [2]: 16 to 50 nM
EC50 [3]: 16 to 50 nM
EC50 [4]: 0.01 to 15 nM
MDCK-MDR1: % Recov A-B [5]: 84%
MDCK-MDR1: % Recov B-A [5]: 93%
efflux ratio at 120 min, 5 μM [6]: 15
Papp A→B at 120 min, 5 μM [7]: 3.97 ×10⁻⁶ cm/s
Papp B→A at 120 min, 5 μM [7]: 60.3 ×10⁻⁶ cm/s

CN(c1ccc(-c2cc(F)c(-n3ccnn3)cc2O)nn1)[C@@H]1C[C@H]2CC[C@H](N2)[C@@H]1F [Compound 52A, 4-fluoro-2-(6-(((1S,2S,3R,5R)-2-fluoro-8-azabicyclo[3.2.1]octan-3-yl)(methyl)amino)pyridazin-3-yl)-5-(1H-1,2,3-triazol-1-yl)phenol]
EC50 [1]: 16 to 50 nM
EC50 [2]: 51 to 100 nM
EC50 [3]: 101 to 500 nM
EC50 [4]: 16 to 50 nM
MDCK-MDR1: % Recov A-B [5]: 86%
MDCK-MDR1: % Recov B-A [5]: 92%
efflux ratio at 120 min, 5 μM [6]: 8
Papp A→B at 120 min, 5 μM [7]: 6.63 ×10⁻⁶ cm/s
Papp B→A at 120 min, 5 μM [7]: 49.7 ×10⁻⁶ cm/s

CN(c1ccc(-c2cc(F)c(-c3ccoc(=O)c3)cc2O)nn1)[C@@H]1C[C@H]2CC[C@H](N2)[C@@H]1F [Compound 17A, 4-(2-fluoro-4-(6-(((1S,2S,3R,5R)-2-fluoro-8-azabicyclo[3.2.1]octan-3-yl)(methyl)amino)pyridazin-3-yl)-5-hydroxyphenyl)-2H-pyran-2-one]
EC50 [1]: 0.01 to 15 nM
EC50 [2]: 0.01 to 15 nM
EC50 [3]: 0.01 to 15 nM
EC50 [4]: 0.01 to 15 nM
MDCK-MDR1: % Recov A-B [5]: 57%
MDCK-MDR1: % Recov B-A [5]: 81%
efflux ratio at 120 min, 5 μM [6]: 19
Papp A→B at 120 min, 5 μM [7]: 2.08 ×10⁻⁶ cm/s
Papp B→A at 120 min, 5 μM [7]: 39.2 ×10⁻⁶ cm/s
